According to patent US11168095B2, “ASK1 inhibiting agents” (BIOGEN MA INC., priority 2017, dated 2021):
Where two headings read alike, the source gives them in different places.

Columns and labels:
GST-hASK1 = GST-hASK1 (Homo sapiens (Human), UniProt Q99683); test: ASK1 TR-FRET assay; format: biochemical; conditions: 5 nM GST-hASK1, 100 μM ATP, 2 μM STK Substrate 3
Procedure: The protein kinase activity of 5 nM GST-hASK1(Life Technologies PV4011) was assayed with 100 μM ATP and 2 μM of HTRF biotinylated STK Substrate 3 (CisBio Kit 62ST3PEJ), at ambient temperature in 25 mM Hepes, pH 7.5, 50 mM NaCl, 10 mM MgCl2, 0.02% Brij-35, 1 mM DTT, and 1% DMSO.
After a 10 minute pre-incubation, ASK1 protein kinase activity was initiated by addition of 10 μL of 300 μM ATP.

[1] = molecular target: ASK1 T838 auto phosphorylation in HEK-293T cells (Homo sapiens (Human), UniProt Q99683); test: ASK1 (AUTO PHOS T838) assay, MSD format; format: cell-based
ASK1/MAP3K5 = ASK1/MAP3K5 (Homo sapiens (Human), UniProt Q99683); test: ASK1/MAP3K5 assay by Reaction Biology Corp.; format: biochemical
Procedure: ASK1/MAP3K5 was used as the protein kinase and 20 μM of myelin basic protein (MBP) and 10 μM ATP were used as the substrate.

[2] = HEK 293T cells transfected with ASK1-V5 full length plasmid, compounds 1 hr at 37° C., read-out: IC50
[3] = 20 μM myelin basic protein (MBP), 10 μM ATP

Sequence of GST-hASK1 (Q99683 649-946): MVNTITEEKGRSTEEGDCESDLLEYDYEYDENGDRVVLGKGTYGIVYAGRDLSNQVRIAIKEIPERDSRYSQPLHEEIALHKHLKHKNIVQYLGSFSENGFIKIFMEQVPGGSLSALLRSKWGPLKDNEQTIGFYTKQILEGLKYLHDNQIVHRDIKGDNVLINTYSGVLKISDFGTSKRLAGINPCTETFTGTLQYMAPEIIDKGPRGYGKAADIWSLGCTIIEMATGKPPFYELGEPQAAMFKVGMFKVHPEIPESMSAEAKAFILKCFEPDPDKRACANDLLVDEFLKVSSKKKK
Sequence of ASK1 T838 auto phosphorylation in HEK-293T cells (Q99683 whole entry): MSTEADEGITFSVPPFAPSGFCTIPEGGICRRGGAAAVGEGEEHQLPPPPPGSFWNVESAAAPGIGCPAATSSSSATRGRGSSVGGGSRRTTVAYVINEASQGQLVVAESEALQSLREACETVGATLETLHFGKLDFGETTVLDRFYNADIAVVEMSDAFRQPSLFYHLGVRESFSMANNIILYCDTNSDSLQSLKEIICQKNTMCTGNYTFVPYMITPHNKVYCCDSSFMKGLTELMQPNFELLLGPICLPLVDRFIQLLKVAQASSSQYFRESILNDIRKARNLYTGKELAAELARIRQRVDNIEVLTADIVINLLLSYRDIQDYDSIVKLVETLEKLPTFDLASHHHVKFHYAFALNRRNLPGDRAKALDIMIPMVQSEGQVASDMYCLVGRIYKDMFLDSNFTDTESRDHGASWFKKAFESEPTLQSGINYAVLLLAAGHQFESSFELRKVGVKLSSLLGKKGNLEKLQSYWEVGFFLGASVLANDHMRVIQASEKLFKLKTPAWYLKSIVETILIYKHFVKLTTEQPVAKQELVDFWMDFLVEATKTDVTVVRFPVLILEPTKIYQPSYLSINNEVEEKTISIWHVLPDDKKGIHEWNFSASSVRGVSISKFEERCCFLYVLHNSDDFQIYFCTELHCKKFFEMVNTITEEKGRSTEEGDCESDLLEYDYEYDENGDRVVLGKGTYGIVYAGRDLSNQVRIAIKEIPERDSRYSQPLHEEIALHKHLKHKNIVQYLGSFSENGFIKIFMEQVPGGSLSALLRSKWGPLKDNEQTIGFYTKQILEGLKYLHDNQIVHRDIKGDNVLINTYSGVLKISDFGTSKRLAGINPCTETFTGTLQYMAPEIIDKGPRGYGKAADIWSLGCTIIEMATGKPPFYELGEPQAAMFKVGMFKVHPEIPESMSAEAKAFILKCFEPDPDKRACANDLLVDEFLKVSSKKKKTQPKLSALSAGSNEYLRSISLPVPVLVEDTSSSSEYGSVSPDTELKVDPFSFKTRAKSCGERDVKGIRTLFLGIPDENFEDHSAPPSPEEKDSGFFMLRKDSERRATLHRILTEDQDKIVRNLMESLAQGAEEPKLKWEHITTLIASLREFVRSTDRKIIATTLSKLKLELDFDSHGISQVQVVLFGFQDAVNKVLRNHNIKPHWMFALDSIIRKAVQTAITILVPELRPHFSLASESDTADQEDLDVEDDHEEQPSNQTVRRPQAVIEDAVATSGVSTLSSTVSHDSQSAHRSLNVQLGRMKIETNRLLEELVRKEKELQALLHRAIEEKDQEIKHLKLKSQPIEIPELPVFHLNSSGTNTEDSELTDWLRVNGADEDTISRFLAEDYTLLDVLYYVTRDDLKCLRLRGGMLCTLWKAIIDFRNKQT
Sequence of ASK1/MAP3K5 (Q99683 whole entry): as above

## O=C1Nc2cccc(n2)-c2nncn2C/C=C/COc2c1cccc2C(F)(F)F [Example 166, (E)-5^3-(Trifluoromethyl)-1^4H-6-oxa-3-aza-2(2,6)-pyridina-1(3,4)-triazola-5(1,2)-benzenacyclodecaphan-8-en-4-one]
GST-hASK1
  IC50: 1 to 10 µM
[1]; [2]
  IC50: > 10 µM

## Cn1cc(-c2ccc3c(c2)C(=O)Nc2cccc(n2)-c2nncn2CCCCO3)nn1 [Example 30, 5^5-(1-Methyl-1H-1,2,3-triazol-4-yl)-1^4H-6-oxa-3-aza-2(2,6)-pyridina-1(3,4)-triazola-5(1,2)-benzenacyclodecaphan-4-one]
GST-hASK1
  IC50: < 0.1 µM
[1]; [2]
  IC50: 1 to 10 µM

## O=C1Nc2cccc(n2)-c2nncn2CCCOc2ccc(Br)cc21 [Example 183, 5^5-Bromo-1^4H-6-oxa-3-aza-2(2,6)-pyridina-1(3,4)-triazola-5(1,2)-benzenacyclononaphan-4-one]
GST-hASK1
  IC50: 1 to 10 µM

## O=C1Nc2cccc(n2)-c2nncn2CCCCCOc2ccc(Br)cc21 [Example 170, 5^5-Bromo-1^4H-6-oxa-3-aza-2(2,6)-pyridina-1(3,4)-triazola-5(1,2)-benzenacycloundecaphan-4-one]
GST-hASK1
  IC50: < 0.1 µM

## Cn1cc(-c2ccc3c(c2)OCCCCn2cnnc2-c2cccc(n2)NC3=O)cn1 [Example 84, 5^4-(1-Methyl-1H-pyrazol-4-yl)-1^4H-6-oxa-3-aza-2(2,6)-pyridina-1(3,4)-triazola-5(1,2)-benzenacyclodecaphan-4-one]
ASK1/MAP3K5; [3]
  IC50: < 0.1 µM
[1]; [2]
  IC50: < 1 µM

## O=C1Nc2cccc(n2)-c2nncn2CCCCOc2cc(F)c(-c3cncnc3)cc21 [Example 60, 5^4-Fluoro-5^5-(pyrimidin-5-yl)-1^4H-6-oxa-3-aza-2(2,6)-pyridina-1(3,4)-triazola-5(1,2)-benzenacyclodecaphan-4-one]
ASK1/MAP3K5; [3]
  IC50: < 0.1 µM
[1]; [2]
  IC50: < 1 µM

## O=C1Nc2cccc(n2)-c2nncn2CCCCOc2ccc(-c3cnn(C4CCC4)c3)cc21 [Example 35, 5^5-(1-Cyclobutyl-1H-pyrazol-4-yl)-1^4H-6-oxa-3-aza-2(2,6)-pyridina-1(3,4)-triazola-5(1,2)-benzenacyclodecaphan-4-one]
ASK1/MAP3K5; [3]
  IC50: < 0.1 µM
[1]; [2]
  IC50: < 1 µM

## C[C@H]1CCOc2cc(F)c(C#CC3(C)COC3)cc2C(=O)Nc2cccc(n2)-c2nncn2C1 [Example 134, (S)-5^4-Fluoro-9-methyl-5^5-((3-methyloxetan-3-yl)ethynyl)-1^4H-6-oxa-3-aza-2(2,6)-pyridina-1(3,4)-triazola-5(1,2)-benzenacyclodecaphan-4-one]
ASK1/MAP3K5
  IC50: < 0.1 µM
[1]
  IC50: < 1 µM

## NCc1ccc2c(c1)C(=O)Nc1cccc(n1)-c1nncn1CCCCO2 [Example 47, 5^5-(Aminomethyl)-1^4H-6-oxa-3-aza-2(2,6)-pyridina-1(3,4)-triazola-5(1,2)-benzenacyclodecaphan-4-one]
ASK1/MAP3K5; [3]
  IC50: < 0.1 µM
[1]; [2]
  IC50: < 1 µM

## O=C1Nc2cccc(n2)-c2nncn2C/C=C/CCOc2ccccc21 [Example 175, (Z)-1^4H-6-oxa-3-aza-2(2,6)-pyridina-1(3,4)-triazola-5(1,2)-benzenacycloundecaphan-9-en-4-one]
ASK1/MAP3K5; [3]
  IC50: < 0.1 µM
[1]; [2]
  IC50: < 1 µM

## O=C1Nc2cccc(n2)-c2nncn2C/C=C\CCOc2cc(F)c(N3CCOCC3)cc21 [Example 181, (Z)-5^4-Fluoro-5^5-morpholino-1^4H-6-oxa-3-aza-2(2,6)-pyridina-1(3,4)-triazola-5(1,2)-benzenacycloundecaphan-9-en-4-one]
ASK1/MAP3K5; [3]
  IC50: < 0.1 µM
[1]; [2]
  IC50: < 1 µM

## CN1CCC(c2cc3c(cc2F)OCCCCn2cnnc2-c2cccc(n2)NC3=O)CC1 [Example 70, 5^4-Fluoro-5^5-(1-methylpiperidin-4-yl)-1^4H-6-oxa-3-aza-2(2,6)-pyridina-1(3,4)-triazola-5(1,2)-benzenacyclodecaphan-4-one]
ASK1/MAP3K5; [3]
  IC50: < 0.1 µM
[1]; [2]
  IC50: < 1 µM

## C[C@H]1CCCn2cnnc2-c2cccc(n2)NC(=O)c2cc(-c3ccncc3)ccc2O1 [Example 144, (S)-7-Methyl-5^5-(pyridin-4-yl)-1^4H-6-oxa-3-aza-2(2,6)-pyridina-1(3,4)-triazola-5(1,2)-benzenacyclodecaphan-4-one]
ASK1/MAP3K5; [3]
  IC50: < 0.1 µM
[1]; [2]
  IC50: < 1 µM

## CN1CC=C(c2cc3c(cc2F)C(=O)Nc2cccc(n2)-c2nncn2CCCCO3)CC1 [Example 85, 5^5-Fluoro-5^4-(1-methyl-1,2,3,6-tetrahydropyridin-4-yl)-1^4H-6-oxa-3-aza-2(2,6)-pyridina-1(3,4)-triazola-5(1,2)-benzenacyclodecaphan-4-one]
ASK1/MAP3K5; [3]
  IC50: < 0.1 µM
[1]; [2]
  IC50: < 1 µM

## Cc1ccnn1-c1ccc2c(c1)C(=O)Nc1cccc(n1)-c1nncn1CCCCO2 [Example 45a, 5^5-(5-Methyl-1H-pyrazol-1-yl)-1^4H-6-oxa-3-aza-2(2,6)-pyridina-1(3,4)-triazola-5(1,2)-benzenacyclodecaphan-4-one]
ASK1/MAP3K5; [3]
  IC50: 0.1 to 1 µM
[1]; [2]
  IC50: 1 to 10 µM

## C[C@@H]1CCCOc2cc(N3CCN(C)CC3)ccc2C(=O)Nc2cccc(n2)-c2nncn21 [Example 123, (R)-10-Methyl-5^4-(4-methylpiperazin-1-yl)-1^4H-6-oxa-3-aza-2(2,6)-pyridina-1(3,4)-triazola-5(1,2)-benzenacyclodecaphan-4-one]
ASK1/MAP3K5; [3]
  IC50: 1 to 10 µM
[1]; [2]
  IC50: 1 to 10 µM

## O=C1Nc2cccc(n2)-c2nncn2CCCCOc2cc(F)c(C3CCOCC3)cc21 [Example 68, 5^4-Fluoro-5^5-(tetrahydro-2H-pyran-4-yl)-1^4H-6-oxa-3-aza-2(2,6)-pyridina-1(3,4)-triazola-5(1,2)-benzenacyclodecaphan-4-one]
ASK1/MAP3K5; [3]
  IC50: < 0.1 µM
[1]; [2]
  IC50: < 1 µM

## O=C1Nc2cccc(n2)-c2nncn2CCCCOc2ccc(C(=O)N3CCCC3)cc21 [Example 31, 5^5-(Pyrrolidine-1-carbonyl)-1^4H-6-oxa-3-aza-2(2,6)-pyridina-1(3,4)-triazola-5(1,2)-benzenacyclodecaphan-4-one]
GST-hASK1
  IC50: 0.1 to 1 µM

## O=C1Nc2cccc(n2)-c2nncn2CCCCOc2cc(F)c(N3CC4CC(C3)O4)cc21 [Example 72, 5^5-(6-Oxa-3-azabicyclo[3.1.1]heptan-3-yl)-5^4-fluoro-1^4H-6-oxa-3-aza-2(2,6)-pyridina-1(3,4)-triazola-5(1,2)-benzenacyclodecaphan-4-one]
ASK1/MAP3K5; [3]
  IC50: < 0.1 µM
[1]; [2]
  IC50: < 1 µM

## C[C@@H]1CCCn2cnnc2-c2cccc(n2)NC(=O)c2cc(N3CCOCC3)ccc2O1 [Example 143, (R)-7-Methyl-5^5-morpholino-1^4H-6-oxa-3-aza-2(2,6)-pyridina-1(3,4)-triazola-5(1,2)-benzenacyclodecaphan-4-one]
ASK1/MAP3K5; [3]
  IC50: < 0.1 µM
[1]; [2]
  IC50: < 1 µM

## Cc1cc(C)n(-c2ccc3c(c2)C(=O)Nc2cccc(n2)-c2nncn2CCCCO3)n1 [Example 46, 5^5-(3,5-Dimethyl-1H-pyrazol-1-yl)-1^4H-6-oxa-3-aza-2(2,6)-pyridina-1(3,4)-triazola-5(1,2)-benzenacyclodecaphan-4-one]
ASK1/MAP3K5; [3]
  IC50: < 0.1 µM
[1]; [2]
  IC50: < 1 µM

## O=C1Nc2cccc(n2)-c2nncn2CCCCOc2cc(F)c(-c3ccncc3)cc21 [Example 52, 5^4-Fluoro-5^5-(pyridin-4-yl)-1^4H-6-oxa-3-aza-2(2,6)-pyridina-1(3,4)-triazola-5(1,2)-benzenacyclodecaphan-4-one]
ASK1/MAP3K5; [3]
  IC50: < 0.1 µM
[1]; [2]
  IC50: < 1 µM

## C[C@H]1CCCOc2cc(S(C)(=O)=O)c(Br)cc2C(=O)Nc2cccc(n2)-c2nncn21 [Example 119, (S)-5^5-Bromo-10-methyl-5^4-(methylsulfonyl)-1^4H-6-oxa-3-aza-2(2,6)-pyridina-1(3,4)-triazola-5(1,2)-benzenacyclodecaphan-4-one]
ASK1/MAP3K5; [3]
  IC50: < 0.1 µM
[1]; [2]
  IC50: < 1 µM

## O=C1Nc2cccc(n2)-c2nncn2C/C=C/CCOc2cc(F)c(Br)cc21 [Example 177, (Z)-5^5-Bromo-5^4-fluoro-1^4H-6-oxa-3-aza-2(2,6)-pyridina-1(3,4)-triazola-5(1,2)-benzenacycloundecaphan-9-en-4-one]
ASK1/MAP3K5; [3]
  IC50: < 0.1 µM
[1]; [2]
  IC50: 1 to 10 µM

## O=C1Nc2cccc(n2)-c2nncn2CCCCOc2cc(N3CCOCC3)ccc21 [Example 80, 5^4-Morpholino-1^4H-6-oxa-3-aza-2(2,6)-pyridina-1(3,4)-triazola-5(1,2)-benzenacyclodecaphan-4-one]
ASK1/MAP3K5; [3]
  IC50: < 0.1 µM
[1]; [2]
  IC50: < 1 µM

## O=C1Nc2cccc(n2)-c2nncn2CCCOc2ccc(N3CCOCC3)cc21 [Example 184, 5^5-Morpholino-1^4H-6-oxa-3-aza-2(2,6)-pyridina-1(3,4)-triazola-5(1,2)-benzenacyclononaphan-4-one]
GST-hASK1
  IC50: 0.1 to 1 µM

## CN(C)CCn1cc(-c2cc3c(cc2F)OCCCCn2cnnc2-c2cccc(n2)NC3=O)cn1 [Example 64, 5^5-(1-(2-(Dimethylamino)ethyl)-1H-pyrazol-4-yl)-5^4-fluoro-1^4H-6-oxa-3-aza-2(2,6)-pyridina-1(3,4)-triazola-5(1,2)-benzenacyclodecaphan-4-one]
ASK1/MAP3K5; [3]
  IC50: < 0.1 µM
[1]; [2]
  IC50: < 1 µM

## COCCOc1cc2c(cc1F)OCC[C@H](C)Cn1cnnc1-c1cccc(n1)NC2=O [Example 135, (S)-5^4-Fluoro-5^5-(2-methoxyethoxy)-9-methyl-1^4H-6-oxa-3-aza-2(2,6)-pyridina-1(3,4)-triazola-5(1,2)-benzenacyclodecaphan-4-one]
ASK1/MAP3K5; [3]
  IC50: < 0.1 µM
[1]; [2]
  IC50: < 1 µM

## Cc1cn(-c2ccc3c(c2)C(=O)Nc2cccc(n2)-c2nncn2CCC[C@@H](C)O3)cn1 [Example 149, (R)-7-Methyl-5^5-(4-methyl-1H-imidazol-1-yl)-1^4H-6-oxa-3-aza-2(2,6)-pyridina-1(3,4)-triazola-5(1,2)-benzenacyclodecaphan-4-one]
ASK1/MAP3K5
  IC50: < 0.1 µM
[1]; [2]
  IC50: < 1 µM
